Reference: patent US12568972B2, “Pyridazinol compounds and derivatives, preparation methods, herbicidal compositions and applications thereof” (Qingdao Kingagroot Chemical Compound Co., Ltd., priority 2018, dated 2026)

Each compound was assayed on Veronica polita (assay: Post-emergence test, weed control effect). Details: Dose 3000 g/ha, after 3 weeks.
Type: in vivo
Summary of the method: (§1)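 Scores use a 0 (no effect) to 10 (dead) scale of fresh-weight inhibition, assessed 3 weeks after spraying. Treatment was at the 2-3 leaf stage, 2-3 weeks post-sowing, using acetone/Tween-80/water solutions with 80% vegetable oil methyl ester synergist at 1500 g/ha.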

| SMILES | weed control effect (activity level), Veronica polita | weed control effect, Veronica polita (activity level) |
| --- | --- | --- |
| Cc1[nH]nc(-c2nnc(C(F)(F)F)cc2O)c1C [Compound 544] | 10 | – |
| CCCCOC(=O)Oc1cc(C(F)(F)F)nnc1-c1ccc(F)cc1 [Compound 1-29] | – | 10 |
| O=S(=O)(NCCCCl)Oc1cc(C(F)(F)F)nnc1-c1cccc(F)c1 [Compound 1-124] | – | 10 |
| O=C(CC1CCCC1)Oc1cc(C(F)(F)F)nnc1-c1ccc(C(F)(F)F)cc1 [Compound 1-18] | – | 10 |
| CCC/C(C)=N\Oc1cc(C(F)(F)F)nnc1-c1ccc(OC)cc1 [Compound 1-171] | – | 10 |
| Cn1nccc1-c1nnc(C(F)(F)F)cc1O [Compound 774] | 10 | – |
| COc1ccc(C(=O)Oc2cc(C(F)(F)F)nnc2-c2ccc(F)c(F)c2)cc1 [Compound 1-84] | – | 10 |
| COCC(=O)Oc1cc(C(F)(F)F)nnc1-c1ccc(F)c(F)c1 [Compound 1-71] | – | 10 |
| COc1cnn(C)c1-c1nnc(C(F)(F)F)cc1O [Compound 811] | 10 | – |

Same assay, conditions: dose 1000 g/ha, after 3 weeks

| SMILES | weed control effect (activity level), Veronica polita |
| --- | --- |
| Oc1cc(C(F)(F)F)nnc1-c1ccc(C2CC2Cl)cc1 (stereo not drawn) [Compound 111] | 10 |
| Oc1cc(C(F)(F)F)nnc1-c1cc(F)c(F)c(F)c1 [Compound 53] | 10 |
| COc1ccccc1-c1nnc(C(F)(F)F)cc1O [Compound 94] | 10 |
| Oc1cc(C(F)(F)F)nnc1-c1cccc(Cl)c1F [Compound 45] | 10 |
| O=Cc1c(F)cccc1-c1nnc(C(F)(F)F)cc1O [Compound 63] | 10 |

Same assay, conditions: dose 2000 g/ha, after 3 weeks

| SMILES | weed control effect (activity level), Veronica polita |
| --- | --- |
| Oc1cc(C(F)(F)F)nnc1-c1ccc(C2CC2)cc1 [Compound 24] | 10 |
| Oc1cc(C(F)(F)F)nnc1-c1ccccn1 [Compound 263] | 10 |
| Cc1cc(-c2nnc(C(F)(F)F)cc2O)cnc1F [Compound 219] | 10 |
| CC(C)OC(=O)Nc1ccc(-c2nnc(C(F)(F)F)cc2O)cn1 [Compound 323] | 10 |

These compounds were tested on Chenopodiaceae (assay: Post-emergence test, weed control effect). Details: Dose 3000 g/ha, after 3 weeks.
Type: in vivo
Summary of the method: as §1

| SMILES | weed control effect (activity level), Chenopodiaceae | weed control effect, Chenopodiaceae (activity level) |
| --- | --- | --- |
| Cc1[nH]nc(-c2nnc(C(F)(F)F)cc2O)c1C [Compound 544] | 10 | – |
| CCCCOC(=O)Oc1cc(C(F)(F)F)nnc1-c1ccc(F)cc1 [Compound 1-29] | – | 10 |
| O=S(=O)(NCCCCl)Oc1cc(C(F)(F)F)nnc1-c1cccc(F)c1 [Compound 1-124] | – | 10 |
| O=C(CC1CCCC1)Oc1cc(C(F)(F)F)nnc1-c1ccc(C(F)(F)F)cc1 [Compound 1-18] | – | 10 |
| CCC/C(C)=N\Oc1cc(C(F)(F)F)nnc1-c1ccc(OC)cc1 [Compound 1-171] | – | 10 |
| Cn1nccc1-c1nnc(C(F)(F)F)cc1O [Compound 774] | 10 | – |
| COc1ccc(C(=O)Oc2cc(C(F)(F)F)nnc2-c2ccc(F)c(F)c2)cc1 [Compound 1-84] | – | 10 |
| COCC(=O)Oc1cc(C(F)(F)F)nnc1-c1ccc(F)c(F)c1 [Compound 1-71] | – | 10 |
| COc1cnn(C)c1-c1nnc(C(F)(F)F)cc1O [Compound 811] | 10 | – |

Same assay, conditions: dose 1000 g/ha, after 3 weeks

| SMILES | weed control effect (activity level), Chenopodiaceae |
| --- | --- |
| Oc1cc(C(F)(F)F)nnc1-c1ccc(C2CC2Cl)cc1 (stereo not drawn) [Compound 111] | 10 |
| Oc1cc(C(F)(F)F)nnc1-c1cc(F)c(F)c(F)c1 [Compound 53] | 10 |
| COc1ccccc1-c1nnc(C(F)(F)F)cc1O [Compound 94] | 10 |
| Oc1cc(C(F)(F)F)nnc1-c1cccc(Cl)c1F [Compound 45] | 10 |
| O=Cc1c(F)cccc1-c1nnc(C(F)(F)F)cc1O [Compound 63] | 10 |

Same assay, conditions: dose 2000 g/ha, after 3 weeks

| SMILES | weed control effect (activity level), Chenopodiaceae |
| --- | --- |
| Oc1cc(C(F)(F)F)nnc1-c1ccc(C2CC2)cc1 [Compound 24] | 10 |
| Oc1cc(C(F)(F)F)nnc1-c1ccccn1 [Compound 263] | 10 |
| Cc1cc(-c2nnc(C(F)(F)F)cc2O)cnc1F [Compound 219] | 10 |
| CC(C)OC(=O)Nc1ccc(-c2nnc(C(F)(F)F)cc2O)cn1 [Compound 323] | 10 |

The compounds below were run on Rorippa indica (assay: Post-emergence test, weed control effect). Details: Dose 3000 g/ha, after 3 weeks.
Type: in vivo
Summary of the method: as §1

| SMILES | weed control effect (activity level), Rorippa indica | weed control effect, Rorippa indica (activity level) |
| --- | --- | --- |
| Cc1[nH]nc(-c2nnc(C(F)(F)F)cc2O)c1C [Compound 544] | 10 | – |
| CCCCOC(=O)Oc1cc(C(F)(F)F)nnc1-c1ccc(F)cc1 [Compound 1-29] | – | 10 |
| O=S(=O)(NCCCCl)Oc1cc(C(F)(F)F)nnc1-c1cccc(F)c1 [Compound 1-124] | – | 10 |
| O=C(CC1CCCC1)Oc1cc(C(F)(F)F)nnc1-c1ccc(C(F)(F)F)cc1 [Compound 1-18] | – | 10 |
| CCC/C(C)=N\Oc1cc(C(F)(F)F)nnc1-c1ccc(OC)cc1 [Compound 1-171] | – | 10 |
| Cn1nccc1-c1nnc(C(F)(F)F)cc1O [Compound 774] | 10 | – |
| COc1ccc(C(=O)Oc2cc(C(F)(F)F)nnc2-c2ccc(F)c(F)c2)cc1 [Compound 1-84] | – | 10 |
| COCC(=O)Oc1cc(C(F)(F)F)nnc1-c1ccc(F)c(F)c1 [Compound 1-71] | – | 10 |
| COc1cnn(C)c1-c1nnc(C(F)(F)F)cc1O [Compound 811] | 10 | – |

Same assay, conditions: dose 1000 g/ha, after 3 weeks

| SMILES | weed control effect (activity level), Rorippa indica |
| --- | --- |
| Oc1cc(C(F)(F)F)nnc1-c1ccc(C2CC2Cl)cc1 (stereo not drawn) [Compound 111] | 10 |
| Oc1cc(C(F)(F)F)nnc1-c1cc(F)c(F)c(F)c1 [Compound 53] | 10 |
| COc1ccccc1-c1nnc(C(F)(F)F)cc1O [Compound 94] | 10 |
| Oc1cc(C(F)(F)F)nnc1-c1cccc(Cl)c1F [Compound 45] | 10 |
| O=Cc1c(F)cccc1-c1nnc(C(F)(F)F)cc1O [Compound 63] | 10 |

Same assay, conditions: dose 2000 g/ha, after 3 weeks

| SMILES | weed control effect (activity level), Rorippa indica |
| --- | --- |
| Oc1cc(C(F)(F)F)nnc1-c1ccc(C2CC2)cc1 [Compound 24] | 10 |
| Oc1cc(C(F)(F)F)nnc1-c1ccccn1 [Compound 263] | 10 |
| Cc1cc(-c2nnc(C(F)(F)F)cc2O)cnc1F [Compound 219] | 10 |
| CC(C)OC(=O)Nc1ccc(-c2nnc(C(F)(F)F)cc2O)cn1 [Compound 323] | 10 |

Each compound was assayed on Amaranthus retroflexus (assay: Post-emergence test, weed control effect). Details: Dose 3000 g/ha, after 3 weeks.
Type: in vivo
Summary of the method: as §1

| SMILES | weed control effect (activity level), Amaranthus retroflexus | weed control effect, Amaranthus retroflexus (activity level) |
| --- | --- | --- |
| Cc1[nH]nc(-c2nnc(C(F)(F)F)cc2O)c1C [Compound 544] | 10 | – |
| CCCCOC(=O)Oc1cc(C(F)(F)F)nnc1-c1ccc(F)cc1 [Compound 1-29] | – | 10 |
| O=S(=O)(NCCCCl)Oc1cc(C(F)(F)F)nnc1-c1cccc(F)c1 [Compound 1-124] | – | 10 |
| O=C(CC1CCCC1)Oc1cc(C(F)(F)F)nnc1-c1ccc(C(F)(F)F)cc1 [Compound 1-18] | – | 10 |
| CCC/C(C)=N\Oc1cc(C(F)(F)F)nnc1-c1ccc(OC)cc1 [Compound 1-171] | – | 10 |
| Cn1nccc1-c1nnc(C(F)(F)F)cc1O [Compound 774] | 10 | – |
| COc1ccc(C(=O)Oc2cc(C(F)(F)F)nnc2-c2ccc(F)c(F)c2)cc1 [Compound 1-84] | – | 10 |
| COCC(=O)Oc1cc(C(F)(F)F)nnc1-c1ccc(F)c(F)c1 [Compound 1-71] | – | 10 |
| COc1cnn(C)c1-c1nnc(C(F)(F)F)cc1O [Compound 811] | 10 | – |

Same assay, conditions: dose 1000 g/ha, after 3 weeks

| SMILES | weed control effect (activity level), Amaranthus retroflexus |
| --- | --- |
| Oc1cc(C(F)(F)F)nnc1-c1ccc(C2CC2Cl)cc1 (stereo not drawn) [Compound 111] | 10 |
| Oc1cc(C(F)(F)F)nnc1-c1cc(F)c(F)c(F)c1 [Compound 53] | 10 |
| COc1ccccc1-c1nnc(C(F)(F)F)cc1O [Compound 94] | 10 |
| Oc1cc(C(F)(F)F)nnc1-c1cccc(Cl)c1F [Compound 45] | 10 |
| O=Cc1c(F)cccc1-c1nnc(C(F)(F)F)cc1O [Compound 63] | 10 |

Same assay, conditions: dose 2000 g/ha, after 3 weeks

| SMILES | weed control effect (activity level), Amaranthus retroflexus |
| --- | --- |
| Oc1cc(C(F)(F)F)nnc1-c1ccc(C2CC2)cc1 [Compound 24] | 10 |
| Oc1cc(C(F)(F)F)nnc1-c1ccccn1 [Compound 263] | 10 |
| Cc1cc(-c2nnc(C(F)(F)F)cc2O)cnc1F [Compound 219] | 10 |
| CC(C)OC(=O)Nc1ccc(-c2nnc(C(F)(F)F)cc2O)cn1 [Compound 323] | 10 |
